According to patent US20240166662A1, “THIOPHENE BASED COMPOUNDS AND USE THEREOF AS BCKDK INHIBITORS” (Ramino-Bio Ltd., priority 2021, published 2024):
Where two headings read alike, the source gives them in different places.

Assays:
BDK (MBP-BDK) [1] = test: Cell-free BDK activity assay (ADP-Glo kinase kit); assay type: biochemical; conditions: in-vitro
Description: (§1) Cell-free BDK activity assay was developed based on protocols and published work of David Chuang as described in Tso et al. 2014. Briefly, The main components of the enzymatic cell-free activity assay are the kinase-BDK (MBP-BDK), its 14 kDa synthetic substrate Lip-LBD-PhP, and ATP. The detection is being done with Promega ADP-Glo™ kinase kit. The assay is robust generating an assay window (AW)>5 and Z′−factor>0.5. The concentrations of all assay components were reduced relative to published concentrations and the assay was validated using known BDK inhibitors.
(§2) Constructs: a synthetic 14 KDa peptide that serves as a substrate for BDK instead of the multimeric BCKDH. This peptide, named LBD-PhP, is composed of the lipoyl binding domain (LBD) of the BCKDH E2 subunit connected by a linker to the phosphorylation peptide (PhP) of the E1α subunit. LBD-PhP is lipoylated in vitro using the E. Coli enzyme—lipoylate ligase (Lp1A) to achieve enhancement of BDK substrate phosphorylation. Additionally, a chimeric BDK in which the kinase is fused in its N-terminus to MBP, generating-MBP-BDK to increase BDK solubility and stability.
(§3) Reaction: The ADP detection is composed of the following steps:
(§4) Kinase reaction is performed by adding BDK, lip-LBD-PhP and ATP and incubating for 60 min at room temperature. This is done in solid white 384-well plates and the total volume of the reaction is 10 μl.
(§5) ADP-Glo reagent is added to terminate the kinase reaction and to deplete the remaining ATP and incubated for 40 min.
(§6) Kinase detection reagent is added for ADP detection: The ADP is converted to ATP and using a series of enzymatic reactions the newly synthesized ATP generates a luminescent signal which is proportional to the amount of the initial ADP formed by the kinase reaction. Luminescence is measured using a plate reader (Tecan Spark 20M plate reader).
(§7) In a typical experiment the AW and Z-factor are calculated from 12 repeats of positive control (100% activity) and 12 repeats of negative control (0% activity).
(§8) Positive control (100% activity)=maximal kinase activity with ATP and substrate. Negative control (0% activity)=minimal kinase activity with ATP alone (no substrate). AW: Average100%/Average0%. Z-factor: 1−((3*STDEV100%+3*STDEV0%)/(Average100%−Average0%)).
(§9) Each 384-well plate-based screening experiment includes serial dilutions of 14 different compounds and the following controls: 1. A known BDK tool compound BT2 (for allosteric inhibitors)/Radicicol (for ATP-pocket inhibitors) 2. Twelve repeats of positive and negative controls. Analyzed compounds and tool compounds are serially diluted, 8-point half log from 50 μM to 16 nM in triplicates. The positive and negative controls are used to calculate AW and Z-factor and to enable data normalization.

BCKDH = conditions: WT and iMSUD patient derived lymphoblasts; cited from earlier work
BDK [2] = target: T1, BDK (Homo sapiens, UniProt O14874); test: BDK inhibitory activity in cell culture (human lymphoblasts); assay type: cell-based
T1 construct: endogenous in cells; host or cells: human lymphoblasts

BDK [3] = target: T1, BDK; test: Cell-based ELISA of BDK activity (E1α phosphorylation level) in WT and iMSUD patient derived lymphoblasts; conditions: WT and mutant lymphoblasts derived from iMSUD patients
Description: Accordingly, the inventors performed cell studies in order to test the efficacy of the exemplary compounds of the invention on the BCKDH E1α subunit phosphorylation level, as it is BDK substrate in WT and iMSUD lymphoblasts and fibroblasts. Efficacy of the tested compounds RMO-1154 and RMO-800 in 2 MSUD lymphoblasts lines has been determined using cell-based ELISA to quantify BDK activity in treated cells as monitored by the phosphorylation level of BDK substrate, E1α. Healthy donor cells and BT2 (commercially available BDK inhibitor) have been used as positive controls.

[4] = Plasma protein binding (human); assay type: in vitro ADME
Description: (§10) Various pharmacokinetic parameters of exemplary compounds of the invention have been established in-vivo and are presented in Table 2 below.

[5] = Pharmacokinetic parameters in-vivo (IV, IP, PO); conditions: for AUC: read-out: Exposure (AUC); for bioavailability: read-out: Oral bioavailability (F); for Vd: read-out: Volume of distribution (Vd)
Description: as §10

BDK (MBP-BDK) [6] = target: T2, BDK (MBP-BDK) (UniProt Q00972); test: Cell-free BDK activity assay (ADP-Glo kinase kit); assay type: biochemical; conditions: cell-free BDK activity assay
T2 construct: IC50 BDK; other: cell-free BDK activity assay; other: in-vitro; assay not specified
Description: as §1, §2, §3, §4, §5, §6, §7, §8, §9

[7] = Plasma protein binding (mouse); assay type: in vitro ADME
Description: as §10

[8] = tested on: BCKA (KIV, KIC, KMV) plasma concentration; test: In-vivo BCKA plasma concentration in WT mice by LC-MS; conditions: for reduction of BCKA (such as KIC and/or KMV) plasma concentrations: 3 single doses a day for 7 days, day 8, WT mice
Description: An alternative assay for assessment of BCKDH activity comprises measuring of BCKAs blood (e.g. plasma) concentration within the subject. BCKAs (such as a-keto isovalerate (abbreviated as KIV), sodium a-keto isocaproate (abbreviated as KIC), sodium a-keto β-methylvalerate (abbreviated as KMV)) are downstream metabolites of BCAAs, and the substrates of BCKDH complex, and are considered to be reliable and sensitive biomarkers for BDK inhibition and BCKDH complex activity enhancement.
BCKA blood concentration of a subject can be determined by various analytical methods, such as by LC-MS.
The inventors performed an in-vivo study by administering an exemplary compound of the invention (RMO-1154) to 8-10 week-old […] WT mice (n=5). RMO-1154 has been administered (per os, 3 single doses a day every 8 hrs, for 7 days) at various single doses (10 mg/kg, 30 mg/kg, and 100 mg/kg). At day 8, KIV, KIC and KMV plasma concentration has been determined by LC-MS.

[9] = human lymphoblasts, read-out: IC50 lymphoblasts

In the case of `O=C(O)c1cc2cscc2s1`, the “BDK inhibitory activity in-vitro (in words)” value (BDK (MBP-BDK) [1]) is reported as “significant BDK inhibitory activity”.

For `O=C(O)c1sc2cc(F)ccc2c1Cl` [BT2F], the “BCKDH activity (in words)” value (BCKDH) is listed as “increase of the BCKDH activity”.

For `O=C(O)c1sc2cc(Cl)ccc2c1Cl` [BT2], the “BCKDH activity (in words)” value (BCKDH) is listed as “increase of the BCKDH activity”.

In the case of `CC(=O)Nc1nonc1NC(=O)c1sc2cc(Cl)ccc2c1Cl` [BT3], the “BCKDH activity (in words)” value (BCKDH) is listed as “increase of the BCKDH activity”.

For `O=C(O)c1cc2c(F)c(F)sc2s1` [RMO-800, 4,5-difluorothieno[2,3-b]thiophene-2-carboxylic acid], the IC50 (BDK [2]; [9]) was 100 nM, the “BDK inhibitory activity (FIGS. 1A-1B, in words)” value (BDK [3]) was “BDK inhibitory activity” and the fraction unbound [4] was 0.008. For the same compound, the AUC ([5]; ip, 3 mg/kg) was 14700 ng·h/mL, the bioavailability ([5]; ip, 3 mg/kg) was 136% and the AUC ([5]; iv, 1 mg/kg) was 3580 ng·h/mL. For the same compound, the Vd ([5]; iv, 1 mg/kg) was 0.16 L/kg, the AUC ([5]; po, 3 mg/kg) was 12700 ng·h/mL and the bioavailability ([5]; po, 3 mg/kg) was 118%. For the same compound, the IC50 (BDK (MBP-BDK) [6]) was 100 nM and the fraction unbound [7] was 0.012.

`O=C(O)c1sc2sc(F)cc2c1F` [RMO-801, 2,4-difluorothieno[2,3-b]thiophene-5-carboxylic acid] showed an IC50 (BDK [2]; [9]) of 170 nM and an IC50 (BDK (MBP-BDK) [6]) of 470 nM.

For `O=C(O)c1cc2c(F)sc(F)c2s1` [RMO-1149, 4,6-difluorothieno[3,4-b]thiophene-2-carboxylic acid], the IC50 (BDK [2]; [9]) was 380 nM and the IC50 (BDK (MBP-BDK) [6]) was 800 nM.

With `O=C(O)c1[se]c2cc(Cl)ccc2c1Cl` [RMO-1152, 3,6-dichlorobenzo[b]selenophene-2-carboxylic acid] the IC50 (BDK [2]; lymphoblasts cells, unit inferred) was 2860 to 13600 nM.

`O=C(O)c1sc2sccc2c1F` [RMO-1153, 4-fluorothieno[2,3-b]thiophene-5-carboxylic acid] gave an IC50 (BDK [2]; [9]) of 290 nM and an IC50 (BDK (MBP-BDK) [6]) of 490 nM.

For `O=C(O)c1cc2cc(F)sc2s1` [RMO-1153B, 5-fluorothieno[2,3-b]thiophene-2-carboxylic acid], the IC50 (BDK (MBP-BDK) [6]) was 610 nM.

For `O=C(O)c1sc2cscc2c1F` [RMO-1154, 3-fluorothieno[3,4-b]thiophene-2-carboxylic acid], the IC50 (BDK [2]; [9]) was 580 nM, the “BDK inhibitory activity (FIGS. 1A-1B, in words)” value (BDK [3]) was “BDK inhibitory activity” and the “reduction of BCKA (such as KIC and/or KMV) plasma concentrations” value ([8]; 10 mg/kg per os) was “about 2 fold”. For the same compound, the “reduction of BCKA (such as KIC and/or KMV) plasma concentrations” value ([8]; 30 mg/kg per os) was 8-10 fold, the “reduction of BCKA (such as KIC and/or KMV) plasma concentrations” value ([8]; 100 mg/kg per os) was 10-12 fold and the “in-vivo reduction of BCKA (KIV, KIC, KMV) concentration in plasma (FIG. 2, in words)” value ([8]; WT mice, day 8) was “dose dependent in-vivo reduction”. It also gave a fraction unbound [4] of 0.015, an AUC ([5]; ip, 3 mg/kg) of 18000 ng·h/mL and a bioavailability ([5]; ip, 3 mg/kg) of 98%. For the same compound, the AUC ([5]; iv, 1 mg/kg) was 6130 ng·h/mL, the Vd ([5]; iv, 1 mg/kg) was 0.15 L/kg and the AUC ([5]; po, 3 mg/kg) was 19400 ng·h/mL. The bioavailability ([5]; po, 3 mg/kg) was 104%, the IC50 (BDK (MBP-BDK) [6]) was 560 nM and the fraction unbound [7] was 0.108.
